From patent US20050065596A1, “Stents capable of controllably releasing histone deacetylase inhibitors” (priority 2002, published 2005)

Experiments:
Assay type in all cases: cell-based
Human aortic SMCs [1] = experiment: Cell counting (growth curves); conditions: 50 nM TSA; days 0-14, medium with TSA replaced every 2-3 days; vs control cells; FIG. 14
Description: (§1) Human aortic SMCs were obtained from BioWhittaker Molecular Applications, Inc. (Clonetics, CC-2571), cultured in Smooth Muscle Medium-2 (BioWhittaker Molecular Applications, Inc., CC-3182), and maintained at 37° C. in humidified 95% air/5% CO2. Human aortic SMCs of passages 8-9 were used in the following experiments.
(§2) Cell proliferation was measured by MTT assay and cell counting.
Human aortic SMCs cells were seeded, at a density of […], in a 24-well plate (about 1.5×10^3 cells/cm^2, in triplicates). Following cell attachment for 24 hours, TSA was added to achieve a final concentration of 50 nM.
Every 2-3 days, the medium was removed and replaced with a fresh medium containing TSA. Control cells were treated with medium without TSA.
On days 0, 1, 2, 3, 6, 9, and 14 post-treatment, the cells were trypsinized and counted with a hemacytometer.

Human aortic SMCs [2] = experiment: Morphological analysis of human aortic SMCs after one day incubation with drug; conditions: FIG. 12; for morphological changes observed in a 40× microscope field: one day incubation, 100 nM and 500 nM TSA, 10 nM RPM, 50 nM Paclitaxel
Description: as §1
(§3) Human aortic SMCs cells were seeded, at a density of 6×10^3 cells/well, in a 24-well plate (about 3×10^3 cells/cm^2, quadruplicates). Following cell attachment for 24 hours, the above drugs were added to the cells, to achieve the following final concentrations: 100 nM and 500 nM of TSA, 10 nM of RPM, and 50 nM of Paclitaxel.
Following a one day incubation with the drug, the morphological changes in the cells were evaluated under a microscope.

Human aortic SMCs [3] = experiment: MTT assay of cell proliferation
Description: as §1, §2, §3
Following three additional days of incubation, 50 μl MTT (methylthiazoletetrazolium, 5 mg/ml in sterile H2O) were added in 0.5 ml medium to each well, and the cells were incubated at 37° C. for 4 hours. The medium was then aspirated, and the cells were dissolved in 300 μl 0.1 N HCl/isopropanol, mixed thoroughly, and a 100 μl portion of the mixture was transferred into a 96-well plate;
The 96-well plate was applied to a micro-plate reader and the absorbance at 570 nm was read. The average reading of wells containing only medium was set as the Control. For each sample, the proliferation rate was determined by the following equation: (Reading/Control)×100=Proliferation Rate (% of Control).

Row | SMILES | continuous effect on SMCs growth (growth curves, cell counting) (Human aortic SMCs [1]) | nature of the inhibitory effect on SMCs (Human aortic SMCs [2]; concluded from the morphological analysis) | morphological changes observed in a 40× microscope field (Human aortic SMCs [2]) | inhibitory effect on the growth of the human SMCs (proliferation rate, MTT) (Human aortic SMCs [3]; 100 nM TSA and 500 nM TSA, four days incubation, FIG. 13) | cytotoxicity on SMCs (Human aortic SMCs [3]; 50 nM Paclitaxel, before the application of MTT assay)
1 | CC(/C=C/C(=O)NO)=C\[C@@H](C)C(=O)c1ccc(N(C)C)cc1 [TSA, Trichostatin A] | significant inhibitory effect | mainly cytostatic | No morphological changes | inhibits SMC proliferation in vitro in a dose-dependent mainer | –
2 | CC(=O)O[C@H]1C(=O)[C@@]2(C)[C@H]([C@H](OC(=O)c3ccccc3)[C@]3(O)C[C@H](OC(=O)[C@H](O)[C@@H](NC(=O)c4ccccc4)c4ccccc4)C(C)=C1C3(C)C)[C@]1(OC(C)=O)CO[C@@H]1C[C@@H]2O [Paclitaxel] | – | – | Rounded up pro-apoptotic cells appeared | – | high cytotoxicity on SMCs and caused cell death
